{"source": "paper PMC2851739", "about": "(General and comparative endocrinology, 2009)", "note": "Ends that are not written are not given here.", "data": [{"test_system": "AeaETHRs", "experiment": "flash luminescence", "format": "cell-based, Aedes aegypti", "details": "peptides with related sequences", "values": [{"substance": "FMRFamide", "activity when tested at 10 μM": "inactive"}, {"substance": "corazonin (QTFQYSRGWTN; ends and bridges not checked; UniProt Q26377 20-30, looked up)", "activity when tested at 10 μM": "inactive"}, {"substance": "ghrelin (GSSFLSPEHQRVQQRKESKKPPAKLQPR; ends and bridges not checked; UniProt Q9UBU3 24-51, looked up)", "activity when tested at 10 μM": "inactive"}]}]}
